In publication PMC11264232, “Are the metal identity and stoichiometry of metal complexes important for colchicine site binding and inhibition of tubulin polymerization?” (Dalton Transactions (Cambridge, England : 2003), 2024):
Marks after values point to notes of the source that are not given here.

Key:
[1] = Cyclic voltammetry in DMSO/nBu4NPF6; type: physicochemical; conditions: scan rate 100 mV s^−1
Experimental: Cyclic voltammetric experiments with 0.5 mM solutions of 1–3 in 0.1 M nBu4NPF6 (puriss quality from Fluka (Schwerte, Germany), dried under reduced pressure at 70 °C for 24 h before use) supporting electrolyte in DMSO (SeccoSolv max. 0.025% H2O, Merck) were performed under argon atmosphere using a three-electrode setup with a platinum disk or a glassy carbon disk working electrode (from Ionode, Australia), platinum wire as a counter electrode, and silver wire as a pseudo reference electrode. All potentials in voltammetric studies were quoted vs. ferricenium/ferrocene (Fc^+/Fc) redox couple. A Heka PG310USB (Lambrecht, Germany) potentiostat with a PotMaster 2.73 software package served for the potential control in voltammetric studies. In situ ultraviolet-visible-near-infrared (UV–Vis–NIR) spectroscopic and spectroelectrochemical measurements were performed on a spectrometer Avantes (Model AvaSpec-2048_14-USB2) in 1 cm quartz cuvette or the spectroelectrochemical cell kit ([…]3) with the Pt-microstructured honeycomb working electrode, purchased from Pine Research Instrumentation (Lyon, France). The cell was positioned in the CUV-UV Cuvette Holder (Ocean Optics, Ostfildern, Germany) connected to the diode-array UV–Vis–NIR spectrometer by optical fibres. UV–Vis–NIR spectra were processed using the AvaSoft 7.7 software package. Halogen and deuterium lamps were used as light sources (Avantes, Model AvaLight-DH-S-BAL, Apeldoorn, The Netherlands). EPR spectra were measured with a X-band cw-EPR spectrometers EMX and EMX plus (Bruker) at room temperature or 100 K. Spectroelectrochemical experiments were performed in a flat cell equipped with a Pt mesh working electrode using nBu4NPF6/DMSO electrolyte. Measurements in frozen solvent glass were done in MeCN/DMF 1 : 1 v/v. Complexes 4 and 5 were dissolved under ambient conditions, and complex 3 was reduced with a stoichiometric equivalent of cobaltocene in a N2 glovebox (N2 < 2 ppm, H2O < 1 ppm). The MeCN/DMF solutions were flash frozen in liquid N2 prior to transfer to the N2 flow cryostat precooled at 100 K inside the cavity of the EPR resonator. EPR spectra were analyzed with the Easyspin toolbox,[75] running on Matlab.

A498 = test: NCI-60 five-dose screen; type: cell-based, human; conditions: Renal cancer
Source text: (§1) The proligands HL^1–HL^3 and their corresponding metal complexes 1–8 prepared in this study were subjected to evaluation of their anticancer potential, including selectivity towards specific types of cancer: leukemia, non-small cell lung (NSCLC), colon, central nervous system (CNS), melanoma, ovarian, renal, prostate and breast cancers, by the National Cancer Institute's Developmental Therapeutics Program. This evaluation involved the utilization of the NCI 60 human tumor cell line panel.[57]
(§2) The NCI-60 SRB assay was performed as described previously.[76] GI50 values (the concentration of the metal complex causing 50% growth inhibition), TGI value (the concentration of the complex causing 0% cell growth), and LC50 (the concentration of the complex causing 50% cell death) were interpolated from dose–response curves that were plots of percentage cell growth versus concentration of test compounds.

RPMI-8226 = test: NCI-60 five-dose screen; type: cell-based, human; conditions: Leukemia
Experimental: (§3) This evaluation involved the utilization of the NCI 60 human tumor cell line panel.[57]
as §2

MOLT-4 = test: NCI-60 five-dose screen; type: cell-based, human; conditions: Leukemia
Experimental: as §3, §2

SNB-75 = test: NCI-60 five-dose screen; type: cell-based, human; conditions: CNS cancer
Source text: as §1, §2

MDA-MB-468 = test: NCI-60 five-dose screen; type: cell-based, human; conditions: Breast cancer
Source text: as §1, §2

HOP-92 = test: NCI-60 five-dose screen; type: cell-based, human; conditions: Non-Small Cell Lung Cancer
Source text: as §1, §2

T-47D = test: NCI-60 five-dose screen; type: cell-based, human; conditions: Breast cancer
Source text: as §1, §2

786-0 = test: NCI-60 five-dose screen; type: cell-based, human; conditions: Renal cancer
Source text: as §1, §2

MCF7 = test: NCI-60 five-dose screen; type: cell-based, human; conditions: Breast cancer
Source text: (§4) GI50 values (the concentration of the metal complex causing 50% growth inhibition), TGI value (the concentration of the complex causing 0% cell growth), and LC50 (the concentration of the complex causing 50% cell death) were interpolated from dose–response curves that were plots of percentage cell growth versus concentration of test compounds.

PC-3 = test: NCI-60 five-dose screen; type: cell-based, human; conditions: Prostate cancer
Source text: as §4

SNB-19 = test: NCI-60 five-dose screen; type: cell-based, human; conditions: CNS cancer
Source text: as §1, §4

EKVX = test: NCI-60 five-dose screen; type: cell-based, human; conditions: Non-Small Cell Lung Cancer
Source text: as §1, §2

SF-295 = test: NCI-60 five-dose screen; type: cell-based, human; conditions: CNS cancer
Source text: as §1, §4

NCI-H322M = test: NCI-60 five-dose screen; type: cell-based, human; conditions: Non-Small Cell Lung Cancer
Source text: as §1, §2

HCT-116 = test: NCI-60 five-dose screen; type: cell-based, human; conditions: Colon cancer
Source text: as §1, §2

NCI/ADR-RES = test: NCI-60 five-dose screen; type: cell-based, human; conditions: Ovarian cancer
Source text: as §1, §2

SF-539 = test: NCI-60 five-dose screen; type: cell-based, human; conditions: CNS cancer
Source text: as §1, §4

[2] = system: MRC-5 human lung fibroblast cells; test: MTT viability assay, 24 h; conditions: read-out: IC50 values MRC-5; MRC-5 fibroblasts, 24 h, MTT assay
Experimental: We wanted to compare the cytotoxicity of proligands HL^1–HL^3 and of their Co(III) and Fe(III) complexes 1, 2 and 4, 5 on cell lines originating from the same tissue, so human lung carcinoma A549 cells and lung fibroblast MRC-5 cells were subjected to 24 h treatments.
The biological effects of selected metal complexes (1, 2, 4 and 5) and of their proligands (HL^1, HL^2 and HL^3) were tested more extensively on A549 human lung adenocarcinoma cells and on MRC-5 human lung fibroblast cells. Both cell lines were obtained from ATCC and maintained in DMEM cell culture media containing 1.0 g L^−1 glucose (Biosera, Nuaille, France) complemented with 10% fetal bovine serum (FBS), 2 mM L-glutamine, 0.01% streptomycin and 0.005% penicillin and were cultured under standard conditions in a 37 °C incubator at 5% CO2 and 95% humidity. The viability of A549 and of MRC-5 fibroblast cells upon exposure to the selected metal–ligand complexes and ligands were evaluated by the MTT assay. For this, 10 000 cells per well were seeded into 96-well plates and left to grow. On the next day the cells were exposed to 0, 5, 10, 20, 40 or 80 μM of each compound or to an equivalent volume of DMSO for 24 h. After the treatments, cells were washed with PBS and then were incubated with 0.5 mg mL^−1 MTT reagent (Sigma-Aldrich, St Louis, Missouri, USA) for 1 h at 37 °C. Finally, 100 μL of DMSO (Molar Chemicals, Halásztelek, Hungary) was added to each well, and the absorbance of samples was measured at 570 nm using a Synergy HTX plate reader (BioTek, Winooski, Vermont, USA). The viability measurements were repeated three times using 3 independent biological replicates.

HOP-62 = test: NCI-60 five-dose screen; type: cell-based, human; conditions: Non-Small Cell Lung Cancer
Source text: as §1, §2

SK-OV-3 = test: NCI-60 five-dose screen; type: cell-based, human; conditions: Ovarian cancer
Source text: as §1, §2

RXF 393 = test: NCI-60 five-dose screen; type: cell-based, human; conditions: Renal cancer
Source text: as §1, §2

A549 cells = test: BrdU incorporation assay; conditions: 10 μM, 24 h
Experimental: To test directly the antiproliferative activity of the proligands and of their Co(III) and Fe(III) complexes on A549 cancer cells, non-toxic concentrations of the compounds were applied to the cells, then the 5-bromo-2′-deoxy-uridine (BrdU) incorporation assay was performed (Fig. 10).
The effect of proligands HL^1–HL^3 and of metal complexes 1, 2 and 4, 5 on the proliferation of A549 cells was investigated by the BrdU assay (5-bromo-2′-deoxyuridine Labeling and Detection Kit I, Roche, Cat. No. 11 296 736 001). For this, 3 × 10^4 cells were seeded onto glass coverslips that were placed on 24-well plates, and the cells were left to grow overnight. Next day, when the cells reached about 50% confluence, the samples were treated with 10 μM of each compound or with an equivalent volume of DMSO for 24 h. At this point, BrdU labeling solution was added in a 1 : 1000 dilution, and the incubation continued for 30 min. Then the cells were fixed using 70% ethanol in 50 mM glycine (pH 2.0), and immunofluorescence of adherent cells was measured following the manufacturer's instructions. BrdU incorporation was visualized using an Olympus FV10i confocal microscope.

IGROV1 = test: NCI-60 five-dose screen; type: cell-based, human; conditions: Ovarian cancer
Source text: as §1, §2

OVCAR-5 = test: NCI-60 five-dose screen; type: cell-based, human; conditions: Ovarian cancer
Source text: as §1, §2

OVCAR-8 = test: NCI-60 five-dose screen; type: cell-based, human; conditions: Ovarian cancer
Source text: as §1, §2

SW-620 = test: NCI-60 five-dose screen; type: cell-based, human; conditions: Colon cancer
Source text: as §1, §4

HL-60(TB) = test: NCI-60 five-dose screen; type: cell-based, human; conditions: Leukemia
NCI-H460 = test: NCI-60 five-dose screen; type: cell-based, human; conditions: Non-Small Cell Lung Cancer
Source text: as §1, §2

CCRF-CEM = test: NCI-60 five-dose screen; type: cell-based, human; conditions: Leukemia
Source text: as §1, §2

COLO 205 = test: NCI-60 five-dose screen; type: cell-based, human; conditions: Colon cancer
Source text: as §1, §2

NCI-H23 = test: NCI-60 five-dose screen; type: cell-based, human; conditions: Non-Small Cell Lung Cancer
Source text: as §1, §2

DU-145 = test: NCI-60 five-dose screen; type: cell-based, human; conditions: Prostate cancer
Source text: as §4

[3] = system: tubulin (colchicine site); test: Inhibition of [3H]colchicine binding to tubulin; conditions: tubulin 0.5 μM, [3H]colchicine 5 μM
Source text: The methods used for determination of the IC50 values for tubulin assembly and inhibition of [^3H]colchicine binding were as described previously.[77]

In the case of `CC(=NN=C([S-])Nc1cc(C)c(O)c(C)c1)c1cccc(CN2CCOCC2)n1.CC(=NN=C([S-])Nc1cc(C)c(O)c(C)c1)c1cccc(CN2CCOCC2)n1.O=[N+]([O-])[O-].[Fe+3]` [Complex 4, [Fe^III(L^2)2]NO3], the “1st oxidation potential (peak potential Ep)” value [1] is reported as 0.40^i* volts vs. Fc^+/Fc, the “1st reduction potential (E1/2 or Ep)” value [1] is reported as −0.35^r volts vs. Fc^+/Fc and the “2nd reduction potential (E1/2 or Ep)” value [1] is reported as −1.85^q volts vs. Fc^+/Fc. For the same compound, the GI50 (A498) was 19800 nM, the GI50 (RPMI-8226) was 1810 nM and the GI50 (MOLT-4) was 2720 nM. For the same compound, the GI50 (SNB-75) was 1580 nM, the GI50 (MDA-MB-468) was 1560 nM and the GI50 (HOP-92) was 2540 nM. For the same compound, the GI50 (T-47D) was 1900 nM, the GI50 (786-0) was 9560 nM and the GI50 (MCF7) was 1950 nM. It also gave a GI50 (PC-3) of 2430 nM, a GI50 (SNB-19) of 2760 nM and a GI50 (EKVX) of 2250 nM. For the same compound, the GI50 (SF-295) was 1940 nM, the GI50 (NCI-H322M) was 3260 nM and the GI50 (HCT-116) was 2300 nM. It also gave a GI50 (NCI/ADR-RES) of 2980 nM, a GI50 (SF-539) of 1960 nM and an IC50 [2] greater than 80000 nM. It also gave a GI50 (HOP-62) of 2970 nM, a GI50 (SK-OV-3) of 2700 nM and a GI50 (RXF 393) of 1950 nM. For the same compound, the “A549 cell proliferation (BrdU incorporation)” value (A549 cells) was “significantly less BrdU incorporation”, the GI50 (IGROV1) was 3270 nM and the GI50 (OVCAR-5) was 2740 nM. It also gave a GI50 (OVCAR-8) of 2500 nM, a GI50 (SW-620) of 2300 nM and a GI50 (HL-60(TB)) of 1410 nM. The GI50 (NCI-H460) was 1980 nM, the GI50 (CCRF-CEM) was 2220 nM and the GI50 (COLO 205) was 1530 nM. The GI50 (NCI-H23) was 2230 nM, the GI50 (DU-145) was 6290 nM and the “Inhibition of colchicine binding, % inhibition ± SD” value ([3]; 5 μM inhibitor) was 3.4 ± 5%. The “Inhibition of colchicine binding, % inhibition ± SD” value ([3]; 25 μM inhibitor) was 17 ± 4%.
